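Five concentrations, 48 hours, 96-well plates. GI50: concentration for 50% inhibition of growth. TGI marks complete inhibition of growth.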
How the values were obtained:
Assay in all cases: growth of human tumour cells (NCI), 48 h
A498 renal = test system: A498 renal
HT29 colon = test system: HT29 colon
SF-295 CNS = test system: SF-295 CNS
LOX IMVI melanoma = test system: LOX IMVI melanoma
PC-3 prostate = test system: PC-3 prostate
MOLT-4 leukemia = test system: MOLT-4 leukemia
SF-539 CNS = test system: SF-539 CNS
SNB-19 CNS = test system: SNB-19 CNS
HCT-15 colon = test system: HCT-15 colon
M14 melanoma = test system: M14 melanoma
EKVX NSCLC = test system: EKVX NSCLC
A549 NSCLC = test system: A549 NSCLC
ACHN renal = test system: ACHN renal
HL-60(TB) leukemia = test system: HL-60(TB) leukemia
UO-31 renal = test system: UO-31 renal
RXF 393 renal = test system: RXF 393 renal
SNB-75 CNS = test system: SNB-75 CNS
OVCAR-4 ovarian = test system: OVCAR-4 ovarian
MCF7 breast = test system: MCF7 breast
SF-268 CNS = test system: SF-268 CNS
CAKI-1 renal = test system: CAKI-1 renal
UACC-62 melanoma = test system: UACC-62 melanoma
NCI-H226 lung = test system: NCI-H226 lung
HS 578T breast = test system: HS 578T breast
NCI/ADR-RES ovarian = test system: NCI/ADR-RES ovarian
HCC-2998 colon = test system: HCC-2998 colon
OVCAR-8 ovarian = test system: OVCAR-8 ovarian
UACC-257 melanoma = test system: UACC-257 melanoma
OVCAR-3 ovarian = test system: OVCAR-3 ovarian
HCT-116 colon = test system: HCT-116 colon
SW-620 colon = test system: SW-620 colon
BT-549 breast = test system: BT-549 breast
SN12C renal = test system: SN12C renal
SK-MEL-2 melanoma = test system: SK-MEL-2 melanoma
NCI-H522 lung = test system: NCI-H522 lung
RPMI-8226 leukemia = test system: RPMI-8226 leukemia
SR leukemia = test system: SR leukemia
MDA-MB-231 breast = test system: MDA-MB-231 breast
KM12 colon = test system: KM12 colon
COLO 205 colon = test system: COLO 205 colon
MDA-MB-435 = test system: MDA-MB-435
SK-MEL-28 melanoma = test system: SK-MEL-28 melanoma
NCI-H460 lung = test system: NCI-H460 lung
SK-MEL-5 melanoma = test system: SK-MEL-5 melanoma
OVCAR-5 ovarian = test system: OVCAR-5 ovarian
786-0 renal = test system: 786-0 renal
DU-145 prostate = test system: DU-145 prostate
IGROV1 ovarian = test system: IGROV1 ovarian
T-47D breast = test system: T-47D breast
HOP-62 NSCLC = test system: HOP-62 NSCLC
K-562 leukemia = test system: K-562 leukemia
TK-10 renal = test system: TK-10 renal
CCRF-CEM leukemia = test system: CCRF-CEM leukemia
HOP-92 NSCLC = test system: HOP-92 NSCLC
SK-OV-3 ovarian = test system: SK-OV-3 ovarian
MALME-3M melanoma = test system: MALME-3M melanoma
U251 CNS = test system: U251 CNS

With `CCNC(=O)N1CCc2cc(OC)c(OCCc3ccc(OC)cc3)cc2C1c1ccc(Cl)cc1C` (centres undefined) the GI50 (A498 renal) was 4020 nM, the TGI (A498 renal) was greater than 24200 nM and the GI50 (HT29 colon) was 444 nM. It also gave a TGI (HT29 colon) of 3140 nM, a GI50 (SF-295 CNS) of 711 nM and a TGI (SF-295 CNS) of 12700 nM. For the same compound, the GI50 (LOX IMVI melanoma) was 186 nM, the TGI (LOX IMVI melanoma) was 1770 nM and the GI50 (PC-3 prostate) was 217 nM. It also gave a TGI (PC-3 prostate) greater than 100000 nM, a GI50 (MOLT-4 leukemia) of 338 nM and a TGI (MOLT-4 leukemia) greater than 100000 nM. It also gave a GI50 (SF-539 CNS) of 410 nM, a TGI (SF-539 CNS) of 3160 nM and a GI50 (SNB-19 CNS) of 683 nM. The TGI (SNB-19 CNS) was greater than 100000 nM, the GI50 (HCT-15 colon) was 85.3 nM and the TGI (HCT-15 colon) was greater than 100000 nM. The GI50 (M14 melanoma) was 726 nM, the TGI (M14 melanoma) was greater than 100000 nM and the GI50 (EKVX NSCLC) was 4090 nM. For the same compound, the TGI (EKVX NSCLC) was greater than 100000 nM, the GI50 (A549 NSCLC) was 735 nM and the TGI (A549 NSCLC) was greater than 100000 nM. For the same compound, the GI50 (ACHN renal) was 676 nM, the TGI (ACHN renal) was greater than 100000 nM and the GI50 (HL-60(TB) leukemia) was 643 nM. It also gave a TGI (HL-60(TB) leukemia) of 3970 nM, a GI50 (UO-31 renal) of 932 nM and a TGI (UO-31 renal) greater than 100000 nM. It also gave a GI50 (RXF 393 renal) of 1450 nM, a TGI (RXF 393 renal) greater than 21600 nM and a GI50 (SNB-75 CNS) of 456 nM. For the same compound, the TGI (SNB-75 CNS) was 6300 nM, the GI50 (OVCAR-4 ovarian) was 2580 nM and the TGI (OVCAR-4 ovarian) was greater than 100000 nM. The GI50 (MCF7 breast) was 422 nM, the TGI (MCF7 breast) was greater than 100000 nM and the GI50 (SF-268 CNS) was 1030 nM. It also gave a TGI (SF-268 CNS) greater than 100000 nM, a GI50 (CAKI-1 renal) of 736 nM and a TGI (CAKI-1 renal) greater than 50100 nM. The GI50 (UACC-62 melanoma) was 532 nM, the TGI (UACC-62 melanoma) was 6440 nM and the GI50 (NCI-H226 lung) was 1890 nM. It also gave a TGI (NCI-H226 lung) of 7060 nM, a GI50 (HS 578T breast) of 1700 nM and a TGI (HS 578T breast) of 8990 nM. It also gave a GI50 (NCI/ADR-RES ovarian) of 735 nM, a TGI (NCI/ADR-RES ovarian) of 5810 nM and a GI50 (HCC-2998 colon) of 1270 nM. The TGI (HCC-2998 colon) was greater than 33300 nM, the GI50 (OVCAR-8 ovarian) was 669 nM and the TGI (OVCAR-8 ovarian) was greater than 100000 nM. The GI50 (UACC-257 melanoma) was 2310 nM, the TGI (UACC-257 melanoma) was greater than 100000 nM and the GI50 (OVCAR-3 ovarian) was 1040 nM. For the same compound, the TGI (OVCAR-3 ovarian) was greater than 100000 nM, the GI50 (HCT-116 colon) was 86.6 nM and the TGI (HCT-116 colon) was greater than 100000 nM. The GI50 (SW-620 colon) was 568 nM, the TGI (SW-620 colon) was greater than 100000 nM and the GI50 (BT-549 breast) was 1060 nM. It also gave a TGI (BT-549 breast) of 4570 nM, a GI50 (SN12C renal) of 1020 nM and a TGI (SN12C renal) greater than 25000 nM. For the same compound, the GI50 (SK-MEL-2 melanoma) was 3520 nM, the TGI (SK-MEL-2 melanoma) was greater than 23700 nM and the GI50 (NCI-H522 lung) was 700 nM. For the same compound, the TGI (NCI-H522 lung) was 2950 nM, the GI50 (RPMI-8226 leukemia) was 403 nM and the TGI (RPMI-8226 leukemia) was 3950 nM. It also gave a GI50 (SR leukemia) of 96.1 nM, a TGI (SR leukemia) of 3300 nM and a GI50 (MDA-MB-231 breast) of 801 nM. It also gave a TGI (MDA-MB-231 breast) greater than 100000 nM, a GI50 (KM12 colon) of 1380 nM and a TGI (KM12 colon) greater than 31400 nM. It also gave a GI50 (COLO 205 colon) of 1020 nM, a TGI (COLO 205 colon) of 5940 nM and a GI50 (MDA-MB-435) of 660 nM. For the same compound, the TGI (MDA-MB-435) was 5820 nM, the GI50 (SK-MEL-28 melanoma) was 943 nM and the TGI (SK-MEL-28 melanoma) was greater than 100000 nM. It also gave a GI50 (NCI-H460 lung) of 100 nM, a TGI (NCI-H460 lung) of 2250 nM and a GI50 (SK-MEL-5 melanoma) of 670 nM. It also gave a TGI (SK-MEL-5 melanoma) of 2310 nM, a GI50 (OVCAR-5 ovarian) of 1860 nM and a TGI (OVCAR-5 ovarian) greater than 100000 nM. It also gave a GI50 (786-0 renal) of 421 nM, a TGI (786-0 renal) greater than 100000 nM and a GI50 (DU-145 prostate) of 830 nM. It also gave a TGI (DU-145 prostate) greater than 100000 nM, a GI50 (IGROV1 ovarian) of 607 nM and a TGI (IGROV1 ovarian) greater than 100000 nM. For the same compound, the GI50 (T-47D breast) was 1840 nM, the TGI (T-47D breast) was greater than 100000 nM and the GI50 (HOP-62 NSCLC) was 958 nM. For the same compound, the TGI (HOP-62 NSCLC) was greater than 100000 nM, the GI50 (K-562 leukemia) was 92.4 nM and the TGI (K-562 leukemia) was greater than 100000 nM. The GI50 (TK-10 renal) was 3520 nM, the TGI (TK-10 renal) was greater than 100000 nM and the GI50 (CCRF-CEM leukemia) was 382 nM. The TGI (CCRF-CEM leukemia) was greater than 100000 nM, the GI50 (HOP-92 NSCLC) was 1480 nM and the TGI (HOP-92 NSCLC) was greater than 21400 nM. For the same compound, the GI50 (SK-OV-3 ovarian) was 2110 nM, the TGI (SK-OV-3 ovarian) was greater than 100000 nM and the GI50 (MALME-3M melanoma) was 3650 nM. It also gave a TGI (MALME-3M melanoma) greater than 100000 nM, a GI50 (U251 CNS) of 479 nM and a TGI (U251 CNS) greater than 40100 nM.
